Tests used:
[1] = tested on: C57Bl/6 mice; assay: Chronic dosing behavioral tests (activity chamber, elevated plus maze, Y maze, Morris water maze, fear conditioning); assay type: in vivo, mouse; conditions: for body weight, activity chamber distance, elevated plus maze open arm time, Y maze alternation, Morris water maze learning / mortality: 10 mg/kg/day IP for a month; for fear conditioning, contextual recall on Day 2: 10 mg/kg/day IP, week 4
Description: Dosing: (R)-2MeGlu (10 mg/kg), (S)-2MeGlu (10 mg/kg), rac-2MeGln (10 mg/kg), and vehicle (PBS) were administered IP at 10 ml/kg dosing volume daily. The first dose was administered one week prior to behavioral tests and continued for four weeks during the behavioral testing.
Activity Chamber Open Field: The assessment took place in an Open Field Activity Arena as described above for 30 min. The Arena was cleaned with a 1% Virkon solution at the end of the trial. Activity chamber open field assessment was conducted after one week of exposure to compounds or vehicle.
Elevated Plus Maze: The maze was made of acrylonitrile butadiene styrene (ABS) plastic and had two open arms and two close arms that were 30 cm long and 5 cm wide. The center area where the open and close arms meet was 5 cm×5 cm. The open arms had 2 mm lips at the edges, and the closed arms had 15 cm opaque walls. The maze was elevated 50 cm and surrounded by privacy blinds during the test. The maze was illuminated to 7 lux using red light throughout the test. Each mouse was released in the center of the maze and given 5 min to explore the maze. Duration and frequency in each zone of the maze were recorded using Ethovision (Noldus Information Technology, Wageningen, the Netherlands) tracking software. The maze was cleaned with a 1% Virkon solution at the end of the trial. Elevated plus maze was conducted after one week of exposure to compounds or vehicle.
Y Maze Spontaneous Alternation: The Y maze is made of plastic with 3 arms in a “Y” shape. The arms are labelled as Arm A, B, and C; Arm A is 20.32 cm (L)×5 cm (W) 12.7 cm (H), Arm B and C are 15.24 cm (L)×5 cm (W), and 12.7 cm (H). The test is based on the willingness of rodents to explore a novel environment and designed to measure spontaneous alternations in rodents. Each mouse was placed in the center of the maze facing Arm B. The first entry was excluded from data analysis because the animals were led to the initial arm entry by the experimenter. Using an overhead camera, the number of arm entries and alternations were recorded for 5 minutes. An arm entry is when all four paws enter into a new arm of the maze. The apparatus was cleaned with 1% Virkon. Parameters recorded were % alternation and the total number of entries into arms. The Y maze test was conducted after two weeks of exposure to compounds or vehicle.
Morris Water Maze: During the Hidden Platform Training (HPT), mice were given 2 trials, with 1-minute inter-trial-intervals (ITIs) in a circular water tank (172 cm diameter) filled with opaque water at 22.0±1.5° C. Nontoxic tempera paint was used to make the water opaque. A circular platform (17 cm diameter) was submerged 1 cm below the water's surface and placed in one of the four quadrants of the pool (Quadrant 2). The release locations into the pool were randomly chosen to prevent spatial bias and the platform was also relocated during reversal training. We conducted 3 days of training with 2 trials each day for a total of the 6 trials prior to probe 1 (Days 1 to 3). Specifically, mice were given a maximum of 60 s to find the submerged platform per trial. […] After remaining on the platform for 15 s, mice were removed from the platform and placed in a dry cage with a paper towel. This process was repeated for 3 days. On the following day (˜24 hours after the last training trial), the platform was removed from the pool, and a 60 s probe trial was conducted. After acquiring the data for the probe trial, the platform was replaced at the same location, and the mice were given additional two trials of training. Three days (˜72 hours) after the last training trial, a second probe trial was conducted. The platform was relocated to a new quadrant (Quadrant 4) after the second probe trial, and the animals were trained in Reversal Hidden Platform Training (RHPT). The procedures for RHPT were identical to HPT and were conducted for 3 days (Days 7 to 9). A third probe trial was conducted on the following day (˜24 hr). […]

[2] = Pharmacokinetics of 2MeGlu and 2MeGln in mice; assay type: in vivo; conditions: 100 mg/kg IP, mouse brain; for time of peak brain concentration: for rac-2MeGln: 2MeGln
Description: C57BL/6 mice (Jackson Laboratory cat. no. 000664) were administered 100 mg/kg IP. […] Whole brain was promptly dissected and one half frozen at −80° C. until homogenization in ice cold PBS (pH 7.4) using a probe ultrasonic homogenizer (Branson Sonifier 450, Power: 5, Cycle: 30%, time: 10 s) on ice. The lysate was centrifuged (2,500 g for 15 min at 4° C.) and the supernatant was assayed using Pierce BCA Protein Assay Kit (23225) using BioTek Epoch plate spectrophotometer by recording absorbance at 562 nm. Two or three 10 μL aliquots of the homogenate were transferred to a 96 well plate and extracted with 190 μL of 60% acetonitrile in water containing 10 μM GABA-d6 or 10 μM Glu-d5 and Gln-d5 as internal standards. 40 μL aliquots of the extracts were then diluted with 120 μL of acetonitrile and prepared for LC-MS/MS analysis. Brain and serum half-lives were calculated using the ‘PKNCA’ package for R. Endogenous levels of Glu, Gln and GABA were determined in the brains of mice used in the pharmacokinetics experiment. MRM transitions specific for Glu, Gln and GABA were monitored simultaneously.

SMILES | body weight, activity chamber distance, elevated plus maze open arm time, Y maze alternation, Morris water maze learning [1] | mortality [1] | fear conditioning, contextual recall on Day 2 [1] | time of peak brain concentration [2] [min] | maximum brain concentration [2] [pmol/mg protein] | half-life ([2]; C57BL/6) [h]
CC(N)(CCC(N)=O)C(=O)O (racemic) [rac-2MeGln, rac-2-methylglutamine] | no significant effect of treatment | no mortality | no significant effect of treatments | 25 |  | 
C[C@@](N)(CCC(=O)O)C(=O)O [(R)-2MeGlu, (R)-2-methylglutamic acid] | no significant effect of treatment | no mortality | no significant effect of treatments | ≤ 5 | 30 | ~1.17
C[C@](N)(CCC(=O)O)C(=O)O [(S)-2MeGlu, (S)-2-methylglutamic acid] | no significant effect of treatment | no mortality | no significant effect of treatments | 25 | 50 | 
